According to patent US9980943B2, “Methods of treating muscular dystrophy” (BOARD OF REGENTS OF THE NEVADA SYSTEM OF HIGHER EDUCATION, …, priority 2013, dated 2018):

Columns and labels:
Type in all cases: cell-based, mouse
[1] = test system: α7 integrin (LacZ reporter in α7βgal+/− myoblasts); assay: Myoblast α7+/LacZ integrin FDG assay (Burkin assay in myoblasts, 96-well); settings: 96-well; for Burkin Assay in Myoblasts, signal relative to DMSO: α7+/LacZ myoblasts; for Burkin Assay in Myoblasts, value relative to DMSO: SU9516 analogs, N=3-6
[2] = test system: α7 integrin (LacZ reporter in α7+/LacZ myotubes); assay: Myotube α7 integrin FDG assay (Burkin assay in myotubes, 96-well); settings: for Burkin Assay in Myotubes, value relative to DMSO: SU9516 analogs, 96-well, N=3-6
[3] = test system: β-galactosidase in CMV-LacZ C2C12 myoblasts; assay: CMV-LacZ secondary screen in C2C12 myoblasts (β-Gal stabilizing assay); settings: for CMV-LACZ in Myoblasts (β-galactosidase activity relative to DMSO): CMV-LacZ C2C12 myoblasts; for CMV-LACZ in Myoblasts, value relative to DMSO: SU9516 analogs, C2C12 CMV-LacZ, N=2
In short: (§1)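 First, C2C12 myoblasts were transfected with a linearized CMV-LACZ vector and clonal lines selected by FDG β-gal assay. Then cells were exposed to compounds at 0.5, 1, 5, 10, 20 and 40 μM in 96-well format, two replicates each, and β-gal measured.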

[4] = test system: β-galactosidase in CMV-LacZ C2C12 myotubes; assay: CMV-LacZ secondary screen in C2C12 myotubes (β-Gal stabilizing assay); settings: for CMV-LACZ in Myotubes, signal relative to DMSO: C2C12 CMV-LacZ myotubes, fold relative to DMSO; for CMV-LACZ in Myotubes, value relative to DMSO: SU9516 analogs, C2C12 CMV-LacZ, N=2
In short: as §1

## CSc1ccc(S(=O)(=O)NCc2ccccc2)cc1 [MLS000531177-01]
[1]; 0.5 uM
  Burkin Assay in Myoblasts, signal relative to DMSO: 0.8826
[1]; 1 uM
  Burkin Assay in Myoblasts, signal relative to DMSO: 0.923
[1]; 5 uM
  Burkin Assay in Myoblasts, signal relative to DMSO: 1.067
[1]; 10 uM
  Burkin Assay in Myoblasts, signal relative to DMSO: 1.625
[1]; 20 uM
  Burkin Assay in Myoblasts, signal relative to DMSO: 1.014
[1]; 40 uM
  Burkin Assay in Myoblasts, signal relative to DMSO: 0.8008
[2]; myotubes, 0.5 uM
  Burkin Assay in Myotubes, α7 integrin LacZ reporter signal relative to DMSO: 0.8259
[2]; myotubes, 1 uM
  Burkin Assay in Myotubes, α7 integrin LacZ reporter signal relative to DMSO: 0.7329
[2]; myotubes, 5 uM
  Burkin Assay in Myotubes, α7 integrin LacZ reporter signal relative to DMSO: 1.051
[2]; myotubes, 10 uM
  Burkin Assay in Myotubes, α7 integrin LacZ reporter signal relative to DMSO: 1.163
[2]; myotubes, 20 uM
  Burkin Assay in Myotubes, α7 integrin LacZ reporter signal relative to DMSO: 0.8007
[2]; myotubes, 40 uM
  Burkin Assay in Myotubes, α7 integrin LacZ reporter signal relative to DMSO: 0.9005
[3]; 0.5 uM
  CMV-LACZ in Myoblasts (β-galactosidase activity relative to DMSO): 1.0785
[3]; 1 uM
  CMV-LACZ in Myoblasts (β-galactosidase activity relative to DMSO): 1.5065
[3]; 5 uM
  CMV-LACZ in Myoblasts (β-galactosidase activity relative to DMSO): 1.0150
[3]; 10 uM
  CMV-LACZ in Myoblasts (β-galactosidase activity relative to DMSO): 0.8958
[3]; 20 uM
  CMV-LACZ in Myoblasts (β-galactosidase activity relative to DMSO): 1.2952
[3]; 40 uM
  CMV-LACZ in Myoblasts (β-galactosidase activity relative to DMSO): 0.9422
[4]; 0.5 uM
  CMV-LACZ in Myotubes, signal relative to DMSO: 1.1989
[4]; 1 uM
  CMV-LACZ in Myotubes, signal relative to DMSO: 1.0411
[4]; 5 uM
  CMV-LACZ in Myotubes, signal relative to DMSO: 0.8757
[4]; 10 uM
  CMV-LACZ in Myotubes, signal relative to DMSO: 0.8917
[4]; 20 uM
  CMV-LACZ in Myotubes, signal relative to DMSO: 0.9244
[4]; 40 uM
  CMV-LACZ in Myotubes, signal relative to DMSO: 1.1522

## Cc1ccsc1CN(C)CC(=O)Nc1ccc([N+](=O)[O-])cc1Cl [MLS001172822-01]
[1]; 0.5 uM
  Burkin Assay in Myoblasts, signal relative to DMSO: 1.233
[1]; 1 uM
  Burkin Assay in Myoblasts, signal relative to DMSO: 1.351
[1]; 5 uM
  Burkin Assay in Myoblasts, signal relative to DMSO: 0.9662
[1]; 10 uM
  Burkin Assay in Myoblasts, signal relative to DMSO: 0.9014
[1]; 20 uM
  Burkin Assay in Myoblasts, signal relative to DMSO: 0.987
[1]; 40 uM
  Burkin Assay in Myoblasts, signal relative to DMSO: 0.9597
[2]; myotubes, 0.5 uM
  Burkin Assay in Myotubes, α7 integrin LacZ reporter signal relative to DMSO: 0.9496
[2]; myotubes, 1 uM
  Burkin Assay in Myotubes, α7 integrin LacZ reporter signal relative to DMSO: 0.9315
[2]; myotubes, 5 uM
  Burkin Assay in Myotubes, α7 integrin LacZ reporter signal relative to DMSO: 0.8513
[2]; myotubes, 10 uM
  Burkin Assay in Myotubes, α7 integrin LacZ reporter signal relative to DMSO: 0.861
[2]; myotubes, 20 uM
  Burkin Assay in Myotubes, α7 integrin LacZ reporter signal relative to DMSO: 0.8466
[2]; myotubes, 40 uM
  Burkin Assay in Myotubes, α7 integrin LacZ reporter signal relative to DMSO: 0.7858
[3]; 0.5 uM
  CMV-LACZ in Myoblasts (β-galactosidase activity relative to DMSO): 0.9304
[3]; 1 uM
  CMV-LACZ in Myoblasts (β-galactosidase activity relative to DMSO): 1.0617
[3]; 5 uM
  CMV-LACZ in Myoblasts (β-galactosidase activity relative to DMSO): 1.1375
[3]; 10 uM
  CMV-LACZ in Myoblasts (β-galactosidase activity relative to DMSO): 1.0904
[3]; 20 uM
  CMV-LACZ in Myoblasts (β-galactosidase activity relative to DMSO): 0.9285
[3]; 40 uM
  CMV-LACZ in Myoblasts (β-galactosidase activity relative to DMSO): 1.2767
[4]; 0.5 uM
  CMV-LACZ in Myotubes, signal relative to DMSO: 1.2590
[4]; 1 uM
  CMV-LACZ in Myotubes, signal relative to DMSO: 1.0514
[4]; 5 uM
  CMV-LACZ in Myotubes, signal relative to DMSO: 1.2505
[4]; 10 uM
  CMV-LACZ in Myotubes, signal relative to DMSO: 1.1819
[4]; 20 uM
  CMV-LACZ in Myotubes, signal relative to DMSO: 1.1768
[4]; 40 uM
  CMV-LACZ in Myotubes, signal relative to DMSO: 0.6358

## CCN(CC)CCNC(=O)c1c(C)[nH]c(/C=C2\C(=O)Nc3ccc(F)cc32)c1C [NCGC00164631-03]
[1]; 0.5 uM
  Burkin Assay in Myoblasts, value relative to DMSO: 0.8373
[1]; 1 uM
  Burkin Assay in Myoblasts, value relative to DMSO: 1.032
[1]; 5 uM
  Burkin Assay in Myoblasts, value relative to DMSO: 0.3224
[1]; 10 uM
  Burkin Assay in Myoblasts, value relative to DMSO: 0.01373
[1]; 20 uM
  Burkin Assay in Myoblasts, value relative to DMSO: 0.01408
[1]; 40 uM
  Burkin Assay in Myoblasts, value relative to DMSO: 0.01283
[2]; 0.5 uM
  Burkin Assay in Myotubes, value relative to DMSO: 0.9512
[2]; 1 uM
  Burkin Assay in Myotubes, value relative to DMSO: 0.9445
[2]; 5 uM
  Burkin Assay in Myotubes, value relative to DMSO: 0.5505
[2]; 10 uM
  Burkin Assay in Myotubes, value relative to DMSO: 0.1881
[2]; 20 uM
  Burkin Assay in Myotubes, value relative to DMSO: 0.09031
[2]; 40 uM
  Burkin Assay in Myotubes, value relative to DMSO: 0.07758
[3]; 0.5 uM
  CMV-LACZ in Myoblasts, value relative to DMSO: 0.8658
[3]; 5 uM
  CMV-LACZ in Myoblasts, value relative to DMSO: 0.7817
[3]; 10 uM
  CMV-LACZ in Myoblasts, value relative to DMSO: 0.2763
[3]; 20 uM
  CMV-LACZ in Myoblasts, value relative to DMSO: 0.1830
[3]; 40 uM
  CMV-LACZ in Myoblasts, value relative to DMSO: 0.1767
[4]; 0.5 uM
  CMV-LACZ in Myotubes, value relative to DMSO: 1.2682
[4]; 1 uM
  CMV-LACZ in Myotubes, value relative to DMSO: 1.2736
[4]; 5 uM
  CMV-LACZ in Myotubes, value relative to DMSO: 0.8420
[4]; 10 uM
  CMV-LACZ in Myotubes, value relative to DMSO: 0.3964
[4]; 20 uM
  CMV-LACZ in Myotubes, value relative to DMSO: 0.6690
[4]; 40 uM
  CMV-LACZ in Myotubes, value relative to DMSO: 0.7680

## CC(C)Oc1ccc(C(=O)/C=C2/C(=O)Nc3ccccc32)cc1 [MLS001214276-01]
[1]; 0.5 uM
  Burkin Assay in Myoblasts, value relative to DMSO: 1.328
[1]; 1 uM
  Burkin Assay in Myoblasts, value relative to DMSO: 1.222
[1]; 5 uM
  Burkin Assay in Myoblasts, value relative to DMSO: 0.6234
[1]; 10 uM
  Burkin Assay in Myoblasts, value relative to DMSO: 0.3235
[1]; 20 uM
  Burkin Assay in Myoblasts, value relative to DMSO: 0.2022
[1]; 40 uM
  Burkin Assay in Myoblasts, value relative to DMSO: 0.02694
[2]; 0.5 uM
  Burkin Assay in Myotubes, value relative to DMSO: 1.162
[2]; 1 uM
  Burkin Assay in Myotubes, value relative to DMSO: 1.197
[2]; 5 uM
  Burkin Assay in Myotubes, value relative to DMSO: 0.9019
[2]; 10 uM
  Burkin Assay in Myotubes, value relative to DMSO: 0.6945
[2]; 20 uM
  Burkin Assay in Myotubes, value relative to DMSO: 0.2362
[2]; 40 uM
  Burkin Assay in Myotubes, value relative to DMSO: 0.07736
[3]; 0.5 uM
  CMV-LACZ in Myoblasts, value relative to DMSO: 0.9516
[3]; 1 uM
  CMV-LACZ in Myoblasts, value relative to DMSO: 0.8731
[3]; 5 uM
  CMV-LACZ in Myoblasts, value relative to DMSO: 1.3014
[3]; 10 uM
  CMV-LACZ in Myoblasts, value relative to DMSO: 1.2231
[3]; 20 uM
  CMV-LACZ in Myoblasts, value relative to DMSO: 1.2922
[3]; 40 uM
  CMV-LACZ in Myoblasts, value relative to DMSO: 0.1781
[4]; 0.5 uM
  CMV-LACZ in Myotubes, value relative to DMSO: 0.7733
[4]; 1 uM
  CMV-LACZ in Myotubes, value relative to DMSO: 0.9141
[4]; 5 uM
  CMV-LACZ in Myotubes, value relative to DMSO: 2.0151
[4]; 10 uM
  CMV-LACZ in Myotubes, value relative to DMSO: 11.1000
[4]; 20 uM
  CMV-LACZ in Myotubes, value relative to DMSO: 0.5259
[4]; 40 uM
  CMV-LACZ in Myotubes, value relative to DMSO: 0.4976

## Nc1ncnc(N2CCc3ccccc32)c1[N+](=O)[O-] [MLS000683232-01]
[1]; 0.5 uM
  Burkin Assay in Myoblasts, signal relative to DMSO: 1.234
[1]; 1 uM
  Burkin Assay in Myoblasts, signal relative to DMSO: 1.199
[1]; 5 uM
  Burkin Assay in Myoblasts, signal relative to DMSO: 1.6445
[1]; 10 uM
  Burkin Assay in Myoblasts, signal relative to DMSO: 1.778
[1]; 20 uM
  Burkin Assay in Myoblasts, signal relative to DMSO: 1.821
[1]; 40 uM
  Burkin Assay in Myoblasts, signal relative to DMSO: 1.654
[2]; myotubes, 0.5 uM
  Burkin Assay in Myotubes, α7 integrin LacZ reporter signal relative to DMSO: 1.136
[2]; myotubes, 1 uM
  Burkin Assay in Myotubes, α7 integrin LacZ reporter signal relative to DMSO: 1.2778
[2]; myotubes, 5 uM
  Burkin Assay in Myotubes, α7 integrin LacZ reporter signal relative to DMSO: 1.272
[2]; myotubes, 10 uM
  Burkin Assay in Myotubes, α7 integrin LacZ reporter signal relative to DMSO: 1.448
[2]; myotubes, 20 uM
  Burkin Assay in Myotubes, α7 integrin LacZ reporter signal relative to DMSO: 1.4149
[2]; myotubes, 40 uM
  Burkin Assay in Myotubes, α7 integrin LacZ reporter signal relative to DMSO: 1.32
[2]; myotubes, maximum response
  MT FOLD INCREASE: 1.7 fold
[2]; myotubes, nonlinear regression of dose-response curves, read-out: EC50 α7+/LacZ MT
  EC50: 5.3 µM
[3]; 0.5 uM
  CMV-LACZ in Myoblasts (β-galactosidase activity relative to DMSO): 0.8043
[3]; 1 uM
  CMV-LACZ in Myoblasts (β-galactosidase activity relative to DMSO): 0.7131
[3]; 5 uM
  CMV-LACZ in Myoblasts (β-galactosidase activity relative to DMSO): 0.5638
[3]; 10 uM
  CMV-LACZ in Myoblasts (β-galactosidase activity relative to DMSO): 0.5224
[3]; 20 uM
  CMV-LACZ in Myoblasts (β-galactosidase activity relative to DMSO): 0.6119
[3]; 40 uM
  CMV-LACZ in Myoblasts (β-galactosidase activity relative to DMSO): 0.8237
[4]; 0.5 uM
  CMV-LACZ in Myotubes, signal relative to DMSO: 0.8200
[4]; 1 uM
  CMV-LACZ in Myotubes, signal relative to DMSO: 0.7752
[4]; 5 uM
  CMV-LACZ in Myotubes, signal relative to DMSO: 0.8743
[4]; 10 uM
  CMV-LACZ in Myotubes, signal relative to DMSO: 1.0086
[4]; 20 uM
  CMV-LACZ in Myotubes, signal relative to DMSO: 0.8835
[4]; 40 uM
  CMV-LACZ in Myotubes, signal relative to DMSO: 0.8365
